Drawing on PubChem BioAssay (NCI), this text covers TGI for 34 compounds.

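Interpolation was linear, between the two tested concentrations surrounding the appropriate level; five concentrations were tested over 48 hours in 96-well plates. TGI: concentration producing complete growth inhibition.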 Where only a bound is given, the exact number is not on record here.

Test systems include DMS 114 small cell lung; SNB-78 CNS; LXFL 529 NSCLC; DLD-1 colon; DMS 273 small cell lung; T-47D breast; XF 498 CNS; HOP-18 NSCLC; RXF-631 renal.
Test in all cases: growth of human tumour cells (NCI), 48 h

Consider `CSc1nc2c(c(O)c(C)c(=O)n2C2OCC(OC(C)=O)C(OC(C)=O)C2OC(C)=O)c(=O)n1C` (stereo unspecified), for which the TGI in the assay on DMS 114 small cell lung, with SNB-78 CNS, in the assay with LXFL 529 NSCLC and with DLD-1 colon was greater than 100 µM throughout.
Take `Cc1cc(N(CCC#N)CCC#N)ccc1N=Nc1cccc(Cl)c1`: the TGI in the assay with DMS 273 small cell lung, in the assay with DMS 114 small cell lung and in the assay with SNB-78 CNS was greater than 100 µM throughout.
In the assay on T-47D breast, `S=C1N=C(Cl)/C(=C\c2ccco2)N1` registered a TGI greater than 100 µM.
For `CC(C)(Oc1ccc2c(=O)cc(-c3ccccc3)oc2c1)C(=O)Nc1c(Cl)cccc1Cl`, the TGI is greater than 100 µM with DMS 273 small cell lung; greater than 100 µM in the assay on DMS 114 small cell lung; greater than 100 µM with SNB-78 CNS; greater than 100 µM with LXFL 529 NSCLC; 72.2 µM in the assay with XF 498 CNS; greater than 100 µM in the assay on HOP-18 NSCLC.
`Nc1nc(NCC2(CO)CCC2)cc(=O)[nH]1` came in with a TGI in the assay with T-47D breast greater than 100 µM.
As for `Cc1n[nH]c(=O)n1/N=C/c1ccncc1`, in the assay on T-47D breast, the TGI was greater than 100 µM.
Consider `CC1(C)CC(=O)c2c(nc(SSc3nc4c(c(-c5ccc(Br)cc5)c3C#N)C(=O)CC(C)(C)C4)c(C#N)c2-c2ccc(Br)cc2)C1`, for which, in the assay on T-47D breast, the TGI was greater than 10 µM.
Consider `COc1ccc(N2C(=O)[C@@H]3[C@H](C2=O)c2[nH]c4ccccc4c2C2CCC(C(C)(C)C)C[C@@H]23)cc1` (stereo partly specified), for which the TGI was greater than 77.9 µM with DMS 273 small cell lung; 59.5 µM in the assay with SNB-78 CNS; greater than 100 µM in the assay on LXFL 529 NSCLC; greater than 100 µM with DLD-1 colon; greater than 100 µM in the assay on XF 498 CNS.
As to `Cn1c2ccccc2n2c3ccccc3c(=O)c(C#N)c12`, the TGI in the assay with T-47D breast was greater than 95.6 µM.
Compound `COC(=O)c1ccccc1C1CN=NC12Cc1cc(C)c(C)cc1C2=O` (stereo unspecified) registered a TGI in the assay with T-47D breast greater than 100 µM.
`CCO/C(O)=C(/C(=N)N1CCCC1)C(=O)Nc1ccc(F)cc1` yielded a TGI with T-47D breast greater than 100 µM.
Same read-out and setting: under `CC(/C=N\NC(=S)N(C)C)=N/NC(=S)N(C)C` stands 2.78 µM; under `Nc1cc(N2CCOCC2)nc(=O)n1-c1ccc(Cl)cc1`, greater than 100 µM.
As to `CC1C=C[C@H](Sc2ccccc2)CC[C@@]1(C)O` (stereo partly specified), the TGI in the assay with DMS 114 small cell lung, in the assay with SNB-78 CNS, in the assay with LXFL 529 NSCLC and in the assay on DLD-1 colon was greater than 100 µM in each case.
As for `CCCCCCCCCCCCCCCC(=O)OC(COC(C)=O)CO[P+](=O)O` (stereo unspecified), the TGI in the assay with T-47D breast is greater than 100 µM.
Same read-out and setting: under `CC1(C)N=C(C(=O)c2ccccc2)N(O)C1(O)c1ccccc1` (stereo unspecified) stands greater than 100 µM; under `COc1ccc([C@]23CCN(S(=O)(=O)c4ccc(C)cc4)[C@H]2[C@H](CO)C2(CC3)OCC(C)(C)CO2)cc1OC`, greater than 100 µM.
In the case of `Cc1sc(N)c(S(=O)(=O)c2ccccc2)c1C`, the TGI in the assay with T-47D breast is greater than 100 µM.
In the case of `COC(=O)C1N=CSCC1(C)O` (stereo unspecified), the TGI with DMS 114 small cell lung, in the assay on SNB-78 CNS, with DLD-1 colon, in the assay on XF 498 CNS and in the assay with HOP-18 NSCLC was greater than 100 µM throughout.
Compound `O=S(=O)(NC1OCCCC1I)c1ccccc1` (stereo unspecified) came in with a TGI in the assay on T-47D breast greater than 100 µM.
Take `COC(=O)CCc1cccnc1/C=N/O`: the TGI with DMS 273 small cell lung, in the assay on DMS 114 small cell lung, in the assay on SNB-78 CNS, in the assay on LXFL 529 NSCLC, in the assay on RXF-631 renal and in the assay with DLD-1 colon was greater than 100 µM in each case. In the assay on HOP-18 NSCLC, the TGI is greater than 100 µM.
In turn, `CC(C)c1cccc(C(=O)NCCN(C)C)c1[N+](=O)[O-]` showed a TGI in the assay on T-47D breast greater than 100 µM.
Regarding `CCCCNC(=O)CCN(C(=O)O)S(=O)(=O)c1ccc(NC(=O)c2ccccc2)cc1`, the TGI in the assay with DMS 273 small cell lung is 86.5 µM; in the assay with DMS 114 small cell lung it was greater than 100 µM; in the assay on SNB-78 CNS it was greater than 100 µM; with LXFL 529 NSCLC it was greater than 100 µM; in the assay with DLD-1 colon, greater than 100 µM; in the assay on XF 498 CNS, greater than 100 µM. In addition, the TGI in the assay on HOP-18 NSCLC was greater than 100 µM.
As for `CCc1cccc(CC)c1NC(=O)C1=C(C)NC(C)=C(C(=O)Nc2c(CC)cccc2CC)C1c1ccc2c(c1)OCO2`, the TGI was 26 µM in the assay with DMS 273 small cell lung; 52.3 µM in the assay on SNB-78 CNS; 29.3 µM in the assay on LXFL 529 NSCLC; 50.3 µM in the assay with DLD-1 colon; 61.2 µM in the assay on HOP-18 NSCLC.
In the assay with T-47D breast, `CCOP(=O)(OCC)[C@]12C[C@@H](C)C=C[C@H]1COC2=O` had a TGI greater than 100 µM.
Turning to `Cn1nc2ccc3nccc(N(CCO)CCO)c3c2n1`, the TGI with DMS 273 small cell lung, in the assay with SNB-78 CNS, in the assay on LXFL 529 NSCLC, in the assay with DLD-1 colon, with XF 498 CNS and with HOP-18 NSCLC was greater than 100 µM each time.
As to `N#CC(C(=N/NC(N)=S)/C(=N/NC(N)=S)C(C#N)c1ccc(Cl)cc1)c1ccc(Cl)cc1` (stereo unspecified), the TGI with DMS 273 small cell lung, in the assay with DMS 114 small cell lung, with SNB-78 CNS, with LXFL 529 NSCLC, with DLD-1 colon and in the assay with XF 498 CNS was greater than 100 µM in each case. The same compound showed a TGI with HOP-18 NSCLC greater than 100 µM.
In the assay with T-47D breast, `C[S+](C)CC(=O)c1ccc2c(c1)Sc1ccccc1O2` came in with a TGI greater than 44.4 µM.
The compound `O=C(NCCNCCNC(=O)C(F)(F)F)C(F)(F)F` registered a TGI in the assay with T-47D breast greater than 100 µM.
Still for that read-out and setting: to `Cn1c(=O)cc(NCCc2ccccc2)[nH]c1=O` belongs greater than 100 µM.
In the case of `CC(=O)NC(CCCNC(=O)NCCCl)C(=O)NCc1ccccc1` (stereo unspecified), the TGI in the assay on DMS 273 small cell lung, with DMS 114 small cell lung, with LXFL 529 NSCLC, with RXF-631 renal and in the assay with HOP-18 NSCLC was greater than 100 µM each time.
`CC(=O)OC1CC[C@@]2(C)C(C1)CC(OC(C)=O)[C@@H]1C2CC(OC(C)=O)[C@]2(C)C(C(C)CC=C(c3ccc(Cl)cc3)c3ccc(Cl)cc3)CCC12` (stereo partly specified) came in with a TGI in the assay with T-47D breast greater than 100 µM.
In the assay on T-47D breast, `COc1cccc(NC(=O)CC(=O)N2N=C(C)C(N=Nc3ccc(S(=O)(=O)CCOS(=O)(=O)O)cc3)C2=O)c1` (stereo unspecified) came in with a TGI of 24.2 µM.
`O=C1CC(c2ccc(Cl)cc2)C2(C(=O)NC(=O)NC2=O)C(c2ccc(Cl)cc2)C1` (stereo unspecified) gave a TGI in the assay on T-47D breast greater than 75 µM.
